Assay results: PMC12280126, “Potent β-lactam-based tyrosyl-DNA phosphodiesterase 1 inhibitors identified by a virtual screen” (Scientific Reports, 2025)
Several values for one entry are separate records, joined by “and”; a condition that tells them apart may be missing. Equal entries are not always repeated. Structures can show the parent of a compound that is named as a salt. Where two headings read alike, the source gives them in different places.

What was measured:
recombinant TDP1 = target: T1, recombinant TDP1 (Homo sapiens, UniProt Q9NUW8); test: in vitro gel-based fluorescence TDP1 catalytic assay; assay type: biochemical; settings: 15 min, room temperature
T1 construct: incubated with 40 pM full-length recombinant TDP1 or TDP1 (148–608)
T1 sequence (Q9NUW8 whole entry): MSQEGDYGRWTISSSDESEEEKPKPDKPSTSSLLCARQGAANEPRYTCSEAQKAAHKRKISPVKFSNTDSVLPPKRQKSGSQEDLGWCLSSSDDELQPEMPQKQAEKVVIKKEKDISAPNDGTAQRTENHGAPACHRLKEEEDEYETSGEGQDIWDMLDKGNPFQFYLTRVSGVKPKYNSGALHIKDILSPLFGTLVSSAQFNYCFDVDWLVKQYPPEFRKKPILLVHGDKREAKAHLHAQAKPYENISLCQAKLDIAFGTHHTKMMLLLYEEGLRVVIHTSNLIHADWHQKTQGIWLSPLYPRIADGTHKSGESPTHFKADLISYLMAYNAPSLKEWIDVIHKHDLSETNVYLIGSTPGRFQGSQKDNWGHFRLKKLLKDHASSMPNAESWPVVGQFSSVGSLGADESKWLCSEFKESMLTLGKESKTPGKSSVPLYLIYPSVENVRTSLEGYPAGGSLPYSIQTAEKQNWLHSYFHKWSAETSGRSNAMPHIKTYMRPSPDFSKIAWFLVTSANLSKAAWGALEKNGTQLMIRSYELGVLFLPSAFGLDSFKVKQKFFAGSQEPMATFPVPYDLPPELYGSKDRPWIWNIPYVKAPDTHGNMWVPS
Description: We subjected select virtual screen hits to evaluation of TDP1 inhibitory potencies using in vitro gel-based fluorescence TDP1 catalytic assays (Fig. 2). […] To further explore this class of compounds, we purchased from TargetMol a library of approximately 90 β-lactams as 10 mM solutions in DMSO. […] We examined TDP1 inhibitory potencies of the compounds using the in vitro gel-based fluorescence assays as previously described[21]–[24]. Briefly, a 5’-Cy5-labeled DNA substrate (N14Y, 5’-Cy5-[…]-pY-3’, 1 nM) was incubated in TDP1 reaction buffer with recombinant TDP1 or truncated TDP1(148–608) (40 pM) in the absence or presence of inhibitors for 15 min at room temperature. […] The TDP1 inhibition IC50 values were calculated based on gel images of the cleavage product (N14P, 5’-Cy5-[…]-p-3’) (Fig. 3A and Table S2).
(§1) The inhibition of TDP1 and TDP2 were conducted according to gel-based methods as previously described[21]–[24],[45]. Briefly, 1 nM of the DNA substrate (N14Y, 5´Cy5-[…]-pY-3´) was incubated with 40 pM full-length recombinant TDP1 or TDP1 (148–608) in the absence or presence of inhibitors for 15 min at room temperature in TDP1 reaction buffer (50 mM Tris-HCl, pH 7.5, 80 mM KCl, 2 mM EDTA, 1 mM DTT, 40 µg/mL BSA and 0.01% Tween 20). The inhibition of TDP2 was also conducted by using similar conditions. […] The reactions of both TDP1 and TDP2 were stopped by adding an equal volume of gel loading buffer (99.5% (v/v) formamide, 5 mM EDTA). The samples were then subjected to a 20% denaturing PAGE gel followed by gel scanning using a Typhoon FLA 9500 scanner (GE Healthcare). The IC50 values of the TDP1 inhibitors were calculated by comparing the percentage of the cleavage product (N14P, 5´Cy5-[…]-p-3´) produced to that in the DMSO control. The IC50 values of the TDP2 inhibitors were calculated by comparing the percentage of the cleavage product (PN18, 5’-p-[…]-Cy5-3’) produced to that in the DMSO control.

recombinant TDP2 = target: T2, recombinant TDP2 (Homo sapiens, UniProt O95551); test: in vitro gel-based fluorescence TDP2 assay (counterscreen); assay type: biochemical; settings: for IC50: 15 min, RT
T2 sequence (O95551 1-362): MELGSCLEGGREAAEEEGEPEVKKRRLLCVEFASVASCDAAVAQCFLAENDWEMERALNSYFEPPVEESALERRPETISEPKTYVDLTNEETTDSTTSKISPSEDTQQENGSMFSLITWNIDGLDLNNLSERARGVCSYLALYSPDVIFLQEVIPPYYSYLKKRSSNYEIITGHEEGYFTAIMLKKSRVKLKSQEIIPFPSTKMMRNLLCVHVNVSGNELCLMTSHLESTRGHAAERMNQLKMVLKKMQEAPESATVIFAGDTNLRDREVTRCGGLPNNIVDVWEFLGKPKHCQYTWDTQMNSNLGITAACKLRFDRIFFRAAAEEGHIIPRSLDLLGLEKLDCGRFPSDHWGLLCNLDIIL
Description: as §1

TDP1(148–608) [1] = target: T3, TDP1(148–608) (Homo sapiens, UniProt Q9NUW8); test: gel-based fluorescence assay with truncated TDP1 compared with full-length TDP1; assay type: biochemical
T3 construct: SPR experiments were recorded for the truncated TDP1(148–608) and the β-lactam compound
T3 sequence (Q9NUW8 148-608): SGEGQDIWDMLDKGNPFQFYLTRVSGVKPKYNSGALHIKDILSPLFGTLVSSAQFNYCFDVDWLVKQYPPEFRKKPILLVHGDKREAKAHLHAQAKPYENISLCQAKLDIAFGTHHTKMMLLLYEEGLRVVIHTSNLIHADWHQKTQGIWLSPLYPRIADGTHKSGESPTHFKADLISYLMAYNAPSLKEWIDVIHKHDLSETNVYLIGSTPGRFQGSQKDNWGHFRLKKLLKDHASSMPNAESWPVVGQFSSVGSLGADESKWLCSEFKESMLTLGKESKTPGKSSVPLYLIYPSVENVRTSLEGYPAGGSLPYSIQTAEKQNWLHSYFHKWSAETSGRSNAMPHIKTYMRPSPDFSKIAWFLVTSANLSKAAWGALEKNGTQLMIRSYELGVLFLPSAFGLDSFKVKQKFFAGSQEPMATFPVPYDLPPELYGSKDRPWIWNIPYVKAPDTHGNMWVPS
Description: as §1

TDP1(148–608) [2] = target: T3, TDP1(148–608); test: Surface plasmon resonance (SPR) binding analysis
From the text: A central mechanism of action of β-lactam antibiotics involves covalent modification of serine residues in PBPs. However, β-lactams are also known to covalently modify proteins more broadly[35],[42]. Mass spectroscopy has proven to be invaluable in characterizing protein modification by β-lactams[43],[44]. […] We evaluated cephalosporin C (11) in SPR studies. For SPR, we immobilized the TDP1(148–608) on an SPR chip and measured the binding of compounds as a function of concentration.
SPR experiments were recorded for the truncated TDP1(148–608) and the β-lactam compound with Biacore T200 system (GE Healthcare). Using the amine coupling kit (Cytiva), 11,000 RU of TDP1 was covalently immobilized on a CM5 chip (Cytiva) via amine coupling. The β-lactam compounds were prepared in HBS-P buffer (Cytiva). Experiments in high-performance mode was carried out using five injections (30 µL/min) of increasing concentrations of the β-lactam (50 nM – 25 µM) passed over the sensor chip for 180 s, followed by a 1200 s dissociation. Buffer and reference signals were subtracted and binding affinities (Kd) were determined using the Biacore T200 evaluation software (GE Healthcare).

[3] = tested on: human colon cancer cell line HCT116; test: Cell viability, synergistic effect with camptothecin (CPT); assay type: cell-based
Description: We undertook further assays to determine whether the β-lactams could act in cells as TDP1 inhibitors.
The synergistic effects of the TDP1 inhibitors with CPT were tested in human colon cancer cell line HCT116 based on cell viability[22],[23]. Cells were first seeded in a 384-well black-clear plate until 30% confluency and then incubated with a serial dilution of CPT at the range of 0-100 nM (0, 12.5, 25, 50, 100 nM) in the present or the absence of desired concentrations of TDP1 inhibitors for 72 h at 37 °C. DMSO was used as control. Viable cell numbers were counted from the brightfield images taken by Biotek Cytation 5.

TDP1(148–608) [4] = target: T3, TDP1(148–608); test: Intact mass and PTM-mapping mass spectrometry for covalent modification; settings: enzyme-to-compound ratios 1:125 to 1:1000
Description: We also digested the TDP1 following incubation with the compounds.

[5] = 40 pM recombinant TDP1, 1 nM N14Y DNA substrate, read-out: TDP1 IC50
[6] = 40 pM recombinant TDP2, 1 nM YN18 DNA substrate, read-out: TDP2 IC50
[7] = TDP1 IC50, 40 pM recombinant TDP1, 1 nM N14Y DNA substrate
[8] = TDP2 IC50, 40 pM recombinant TDP2, 1 nM YN18 DNA substrate

Row | Compound | IC50 (recombinant TDP1; [5]) | IC50 (recombinant TDP2; [6]) [µM] | other results
1 | CC(=O)OCC1=C(C(=O)O)N2C(=O)[C@@H](NC(=O)CCC[C@@H](N)C(=O)O)[C@H]2SC1 [11-Zn, Cephalosporin C Zinc salt] | – | – | IC50 (recombinant TDP1; read-out: TDP1 IC50, 40 pM recombinant TDP1, 1 nM N14Y DNA substrate): 5.3 µM; IC50 (recombinant TDP2; read-out: TDP2 IC50, 40 pM recombinant TDP2, 1 nM YN18 DNA substrate): 89.1 µM
2 | CCN1CCN(C(=O)N[C@@H](C(=O)N[C@@H]2C(=O)N3[C@@H]2SC(C)(C)[C@@H]3C(=O)O)c2ccccc2)C(=O)C1=O [LA2, piperacillin] | 28 µM and < 100 µM | 224 ± 26 | –
3 | CO/N=C(\C(=O)N[C@@H]1C(=O)N2C(C(=O)O)=C(COC(C)=O)CS[C@H]12)c1csc(N)n1 [LA9, Cefotaxime] | – | 81.7 ± 5.2 | –
4 | CC(=O)OCC1=C(C(=O)O)N2C(=O)[C@@H](NC(=O)CCC[C@@H](N)C(=O)O)[C@H]2SC1 [LB2, Cephalosporin C zinc salt] | – | – | IC50 (recombinant TDP1; [7]): 5.54 µM and < 100 µM and 5.5 µM; IC50 (recombinant TDP2; [8]): 38.3 µM; greater potency against TDP1 than against TDP2 (recombinant TDP2; ratio of gel-based IC50 values): approximately 7 fold
5 | CC1(C)[C@H](C(=O)O)N2C(=O)C[C@H]2S1(=O)=O [LB6, Sulbactam sodium] | 84.5 µM and < 100 µM and 85 µM | 201 | –
6 | CC1(C)S[C@@H]2[C@H](NC(=O)[C@H](N)c3ccccc3)C(=O)N2[C@H]1C(=O)O [LB9, Ampicillin sodium] | 10.3 µM and < 100 µM and 10 µM | 2.49 | greater potency against TDP2 than TDP1 (recombinant TDP2; ratio of gel-based IC50 values): 4 fold
7 | CC1(C)S[C@@H]2[C@H](NC(=O)[C@H](N)c3ccc(O)cc3)C(=O)N2[C@H]1C(=O)O [LB11, Amoxicillin Sodium] | – | 99 ± 2.15 | –
8 | CON=C(C(=O)NC1C(=O)N2C(C(=O)O)=C(CSC(=O)c3ccco3)CSC12)c1csc(N)n1 (stereo not drawn) [LC2, Ceftiofur hydrochloride] | > 1000 µM | 80.9 ± 13.2 | –
9 | CC1(C)S[C@@H]2[C@H](NC(=O)Cc3ccccc3)C(=O)N2[C@H]1C(=O)O [LC5, Benzylpenicillin potassium] | > 1000 µM | 26.1 ± 3.35 | –
10 | Cc1onc(-c2c(F)cccc2Cl)c1C(=O)N[C@@H]1C(=O)N2[C@@H]1SC(C)(C)[C@@H]2C(=O)O [LC11, Flucloxacillin sodium] | – | 36 ± 1.35 | –
11 | CC1(C)S[C@@H]2[C@H](NC(=O)[C@H](N)c3ccccc3)C(=O)N2[C@H]1C(=O)O [LD1, Ampicillin Trihydrate] | 77.3 µM and < 100 µM and 77 µM | > 1000 | –
12 | CC1(C)S[C@@H]2[C@H](NC(=O)Cc3ccccc3)C(=O)N2[C@H]1C(=O)O [LD8, Procaine penicillin G] | 84.8 µM and < 100 µM and 85 µM | 77.4 | –
13 | CO/N=C(\C(=O)N[C@@H]1C(=O)N2C(C(=O)O)=CCS[C@H]12)c1csc(N)n1 [LD9, Ceftizoxime] | 10.8 µM and < 100 µM and 11 µM | 37.6 ± 7.4 | –
14 | COc1cccc2c1cc1c3c(cc4c(c32)OCO4)C(=O)N1 [LE2, Aristololactam I] | 80.6 µM and 81 µM | 70.1 | IC50 (recombinant TDP1; [7]): < 100 µM
15 | O=C1[C@H](CC[C@H](O)c2ccc(F)cc2)[C@@H](c2ccc(O)cc2)N1c1ccc(F)cc1 [LE9, Ezetimibe] | 27.5 µM and < 100 µM and 27 µM | 52.6 | –
16 | CC(C)(O/N=C(\C(=O)N[C@@H]1C(=O)N2C(C(=O)[O-])=C(C[n+]3ccccc3)CS[C@H]12)c1csc(N)n1)C(=O)O [LF6, Ceftazidime] | 5.8 µM and < 100 µM | 18.9 ± 2.2 | –

Row | Compound | IC50 (recombinant TDP1; [5]) | IC50 (recombinant TDP2; [6]) [µM] | other results
17 | CC1(Cn2ccnn2)C(C(=O)O)N2C(=O)CC2S1(=O)=O (stereo not drawn) [LF8, Tazobactam acid] | 73.8 µM and < 100 µM and 74 µM | 45.5 | –
18 | CC1(C)S[C@@H]2[C@H](NC(=O)C(C(=O)O)c3ccccc3)C(=O)N2[C@H]1C(=O)O (stereo partly drawn) [LG5, Carbenicillin disodium] | > 1000 µM | – | –
19 | CC(=O)OCC1=C(C(=O)O)N2C(=O)[C@@H](NC(=O)Cc3cccs3)[C@H]2SC1 [LG7, Cephalothin sodium] | – | 35.2 | –
20 | C/C=C/C1=C(C(=O)O)N2C(=O)[C@@H](NC(=O)[C@H](N)c3ccc(O)cc3)[C@H]2SC1 [LG8, Cefprozil hydrate] | > 1000 µM | – | –
21 | Cc1cc(O)c(C(=O)N[C@@H](C(=O)N[C@@H]2C(=O)N3C(C(=O)O)=C(CSc4nnnn4C)CS[C@H]23)c2ccc(O)cc2)cn1 [LH1, Cefpiramide acid] | > 1000 µM | – | –
22 | Cc1onc(-c2ccccc2Cl)c1C(=O)N[C@@H]1C(=O)N2[C@@H]1SC(C)(C)[C@@H]2C(=O)O [LH2, Cloxacillin sodium monohydrate] | > 1000 µM | – | –
23 | C[C@H]1[C@H](NC(=O)/C(=N\OC(C)(C)C(=O)O)c2csc(N)n2)C(=O)N1S(=O)(=O)O [LH3, Aztreonam] | 620 ± 61 µM | – | –
24 | C=CC1=C(C(=O)O)N2C(=O)[C@@H](NC(=O)/C(=N\OCC(=O)O)c3csc(N)n3)[C@H]2SC1 [LH5, Cefixime] | 4 µM and < 100 µM | 69.3 ± 6 | –
25 | Cc1onc(-c2c(Cl)cccc2Cl)c1C(=O)N[C@@H]1C(=O)N2[C@@H]1SC(C)(C)[C@@H]2C(=O)O [LH7, Dicloxacillin sodium monohydrate] | > 1000 µM | – | –
26 | Cc1onc(-c2ccccc2)c1C(=O)NC1C(=O)N2[C@@H]1SC(C)(C)[C@@H]2C(=O)O (stereo partly drawn) [LH8, Oxacillin sodium] | > 1000 µM | – | –
27 | CC1(C)S[C@@H]2[C@H](NC(=O)Cc3ccccc3)C(=O)N2[C@H]1C(=O)O [LH9, Penicillin G sodium salt] | > 1000 µM | – | –
28 | Cc1nnc(SCC2=C(C(=O)O)N3C(=O)[C@@H](NC(=O)Cn4cnnn4)[C@H]3SC2)s1 [LH10, Cefazolin sodium salt] | 530 µM | – | –
29 | CC1=C(C(=O)O)N2C(=O)[C@@H](NC(=O)[C@H](N)c3ccccc3)[C@H]2SC1 [LH11, Cephalexin] | > 1000 µM | – | –
30 | Nc1nc2c(c(=O)[nH]1)N=C(CNc1ccc(C(=O)N[C@@H](CCC(=O)O)C(=O)O)cc1)CN2 [compound 10, dihydrofolic acid dihydrate] | 60.1 µM and 60 µM | – | –
31 | CC(=O)OCC1=C(C(=O)O)N2C(=O)[C@@H](NC(=O)CCC[C@@H](N)C(=O)O)[C@H]2SC1 [compound 11, cephalosporin C] | – | – | IC50 (recombinant TDP1; [7]): 4.43 µM and 4.4 µM; IC50 (recombinant TDP2; [8]): > 100 µM; loss of inhibitory potencies with only the C-terminal residues TDP1(148–608) compared with full-length TDP1 (TDP1(148–608) [1]): more than 50 fold; binding mode from SPR (compound eluted off the chip without impacting binding capacity) (TDP1(148–608) [2]): more likely bound non-covalently; Kd (TDP1(148–608) [2]; TDP1(148–608) immobilized on CM5 chip, 50 nM – 25 µM compound): 11.6 µM; effect in combination with TOP1 inhibitor CPT on cell viability ([3]; HCT116, 25 µM, CPT 0-100 nM, 72 h): acted synergistically; cytotoxicity on its own ([3]; without CPT): no cytotoxicity; covalent modification of TDP1 (intact mass analysis) (TDP1(148–608) [4]): not able to detect covalent modification of TDP1
32 | Cefotiam Hexetil Hydrochloride [LC9] | > 1000 µM | – | –
